{"source": "patent US7666883B2", "about": "“Antimalarial Baylis-Hillman adducts and a process for the preparation thereof” (Council of Scientific and Industrial Research, priority 2005, dated 2010)", "format_in_all_cases": "cell-based", "key": {"[1]": {"test_system": "Chloroquine sensitive (CQS) P. falciparum strain", "test": "Schizont maturation inhibition (SMI), chloroquine sensitive strain", "details": "Plasmodium falciparum, schizont maturation inhibition determined after 24 hr", "experimental": "(§1) Parasites were cultured in O (+) erythrocytes in RPMI-1640 media supplemented with 25 mM HEPES buffer and 10% AB (+) serum by candlejar technique.^9 Initial culture was maintained in small vials (2.5 cm dia.) with 10% haematocrit, i.e. 10 μl erythrocytes containing 1.5% ring stage parasite in 100 μl complete media. The culture volume per well for the assay was 100 μl. Parasitamia was determined for each set of culture, number of parasites for the assay were adjusted at 1 to 1.5% by diluting with fresh O (+) RBC. Assay was done in 96 well microtitre flat-bottomed tissue culture plates. Parasite culture was synchronized at ring forms using density gradient method^10 and cultured for 24 h. in the presence of various doses of compounds and chloroquine for their effect in schizont maturation. Test was done in duplicate wells for each dose of the drugs. Control culture was done with RPMI-164 containing 10% AB (+) serum. Growth of the parasites from duplicate wells of each concentration was monitored in JSB stained^11 blood smears by counting number of schizont per 200 asexual parasites. Percent schizont maturation inhibition was calculated by the formula: (1−Nt/Nc)×100 where, Nt and Nc represent the number of schizont in the test and control well respectively."}, "[2]": {"test_system": "Chloroquine sensitive (CQS) P. falciparum strain", "test": "Total parasite growth inhibition (PGI), chloroquine sensitive strain", "details": "Plasmodium falciparum, total parasite growth inhibition determined after 48 hr"}, "[3]": {"test_system": "Chloroquine resistant (CQR) P. falciparum strain", "test": "Schizont maturation inhibition (SMI), chloroquine resistant strain", "details": "Plasmodium falciparum, schizont maturation inhibition determined after 24 hr", "experimental": "as §1"}, "[4]": {"test_system": "Chloroquine resistant (CQR) P. falciparum strain", "test": "Total parasite growth inhibition (PGI), chloroquine resistant strain", "details": "Plasmodium falciparum, total parasite growth inhibition determined after 48 hr"}}, "data": [{"smiles": "C=C(C#N)C(O)c1cc(C)cnc1Cl", "note": "(stereo not drawn) [Ia, 2-[(2-Chloro-5-methylpyridine-3-yl)(hydroxy)methyl]acrylonitrile]", "values": [{"measurement": "IC50", "setting": "[1]", "result": 1.25, "unit": "µg/mL"}, {"measurement": "IC90", "setting": "[1]", "result": 25.5, "unit": "µg/mL"}, {"measurement": "IC50", "setting": "[2]", "result": 1.3, "unit": "µg/mL"}, {"measurement": "IC90", "setting": "[2]", "result": 85, "unit": "µg/mL"}, {"measurement": "IC50", "setting": "[3]", "result": 22.5, "unit": "µg/mL"}, {"measurement": "IC90", "setting": "[3]", "result": 125, "unit": "µg/mL"}, {"measurement": "IC50", "setting": "[4]", "result": 10.5, "unit": "µg/mL"}, {"measurement": "IC90", "setting": "[4]", "result": 300, "unit": "µg/mL"}]}, {"smiles": "C=C(C#N)C(O)c1cc(CC)cnc1Cl", "note": "(stereo not drawn) [Ib, 2-[(2-Chloro-5-ethylpyridine-3-yl)(hydroxy)methyl]acrylonitrile]", "values": [{"measurement": "IC50", "setting": "[1]", "result": 1.8, "unit": "µg/mL"}, {"measurement": "IC90", "setting": "[1]", "result": 15.5, "unit": "µg/mL"}, {"measurement": "IC50", "setting": "[2]", "result": 4, "unit": "µg/mL"}, {"measurement": "IC90", "setting": "[2]", "result": 31, "unit": "µg/mL"}, {"measurement": "IC50", "setting": "[3]", "result": 2.5, "unit": "µg/mL"}, {"measurement": "IC90", "setting": "[3]", "result": 6.5, "unit": "µg/mL"}, {"measurement": "IC50", "setting": "[4]", "result": 5.5, "unit": "µg/mL"}, {"measurement": "IC90", "setting": "[4]", "result": 26, "unit": "µg/mL"}]}, {"smiles": "C=C(C#N)C(O)c1cc(-c2ccccc2)cnc1Cl", "note": "(stereo not drawn) [Ic, 2-[(2-Chloro-5-phenylpyridine-3-yl)(hydroxy)methyl]acrylonitrile]", "values": [{"measurement": "IC50", "setting": "[1]", "result": 3.6, "unit": "µg/mL"}, {"measurement": "IC90", "setting": "[1]", "result": 25.5, "unit": "µg/mL"}, {"measurement": "IC50", "setting": "[2]", "result": 8, "unit": "µg/mL"}, {"measurement": "IC90", "setting": "[2]", "result": 23, "unit": "µg/mL"}, {"measurement": "IC50", "setting": "[3]", "result": 0.9, "unit": "µg/mL"}, {"measurement": "IC90", "setting": "[3]", "result": 1.5, "unit": "µg/mL"}, {"measurement": "IC50", "setting": "[4]", "result": 2.2, "unit": "µg/mL"}, {"measurement": "IC90", "setting": "[4]", "result": 6.75, "unit": "µg/mL"}]}, {"smiles": "C=C(C#N)C(O)c1ccc(C(=O)OC)nc1Cl", "note": "(stereo not drawn) [Id, Methyl 6-chloro-5-(2-cyano-1-hydroxyallyl) 2-pyridine carboxylate]", "values": [{"measurement": "IC50", "setting": "[1]", "result": 3.4, "unit": "µg/mL"}, {"measurement": "IC90", "setting": "[1]", "result": 22, "unit": "µg/mL"}, {"measurement": "IC50", "setting": "[2]", "result": 7, "unit": "µg/mL"}, {"measurement": "IC90", "setting": "[2]", "result": 29, "unit": "µg/mL"}, {"measurement": "IC50", "setting": "[3]", "result": 5.75, "unit": "µg/mL"}, {"measurement": "IC90", "setting": "[3]", "result": 25.5, "unit": "µg/mL"}, {"measurement": "IC50", "setting": "[4]", "result": 6.75, "unit": "µg/mL"}, {"measurement": "IC90", "setting": "[4]", "result": 29, "unit": "µg/mL"}]}, {"smiles": "C=C(C(=O)OC)C(O)c1cc(C)cnc1Cl", "note": "(stereo not drawn) [Ie, Methyl 2-[(2-chloro-5-methylpyridine-3-)(hydroxy)methyl]acrylate]", "values": [{"measurement": "IC50", "setting": "[1]", "result": 18, "unit": "µg/mL"}, {"measurement": "IC90", "setting": "[1]", "result": 32, "unit": "µg/mL"}, {"measurement": "IC50", "setting": "[2]", "result": 28.5, "unit": "µg/mL"}, {"measurement": "IC90", "setting": "[2]", "result": 115, "unit": "µg/mL"}, {"measurement": "IC50", "setting": "[3]", "result": 3.05, "unit": "µg/mL"}, {"measurement": "IC90", "setting": "[3]", "result": 7, "unit": "µg/mL"}, {"measurement": "IC50", "setting": "[4]", "result": 5.75, "unit": "µg/mL"}, {"measurement": "IC90", "setting": "[4]", "result": 27.5, "unit": "µg/mL"}]}, {"smiles": "C=C(C(=O)OC)C(O)c1cc(-c2ccccc2)cnc1Cl", "note": "(stereo not drawn) [If, Methyl 2-[(2-chloro-5-phenylpyridine-3-yl)(hydroxy)methyl]acrylate]", "values": [{"measurement": "IC50", "setting": "[1]", "result": 45, "unit": "µg/mL"}, {"measurement": "IC90", "setting": "[1]", "result": 125, "unit": "µg/mL"}, {"measurement": "IC50", "setting": "[2]", "result": 115, "unit": "µg/mL"}, {"measurement": "IC90", "setting": "[2]", "result": 350, "unit": "µg/mL"}, {"measurement": "IC50", "setting": "[3]", "result": 5, "unit": "µg/mL"}, {"measurement": "IC90", "setting": "[3]", "result": 30, "unit": "µg/mL"}, {"measurement": "IC50", "setting": "[4]", "result": 10.8, "unit": "µg/mL"}, {"measurement": "IC90", "setting": "[4]", "result": 77.5, "unit": "µg/mL"}]}]}
